Data as given in PMC11440508, “Dually Labeled Neurotensin NTS1R Ligands for Probing Radiochemical and Fluorescence-Based Binding Assays” (Journal of Medicinal Chemistry, 2024).
Like-named read-outs stand apart in the source and are kept apart here. Starred links: 1 amine or outer side, 2 acyl side, 3 side chain; linkers in the order of their positions; H or OH if unused. Non-standard residues stand in square brackets, D forms with d. Residues, ends and D or L forms follow the SMILES beside them. Groups on a side chain read outwards from the residue. *: point of attachment. X1 = CN(C)c1ccc2c(-c3ccc(C(=O)*)cc3C(=O)[O-])c3ccc(=[N+](C)C)cc-3oc2c1; X4 = NCCCCNC(=O)N=C(N)NCCC[C@H](N[*:1])C(=O)[*:2]; dTyr(β,β-Me2) = CC(C)(c1ccc(O)cc1)[C@@H](N)C(=O)O; Tyr(β,β-Me2) = CC(C)(c1ccc(O)cc1)[C@H](N)C(=O)O; Gly(piperidin-4-yl) = N[C@H](C(=O)O)C1CCNCC1; X2 = O=C(CCc1cn(CCCN[*:1])nn1)[*:2]; Pent4ynoyl = C#CCCC(=O)*; Pra = C#CC[C@H](N)C(=O)O; NH(CH2)4NH2 = NCCCCN*; CO = O=C([*:1])[*:2]; Propionyl = CCC(=O)*; GABA = NCCCC(=O)O

Tests used:
NTS1R [1] = target: T1, NTS1R (Homo sapiens, UniProt P30989); assay: Radioligand competition binding with [^3H]UR-MK300 at intact HT-29 colon carcinoma cells; conditions: [^3H]UR-MK300, intact HT-29 cells, 23 °C; read-out: NTS1R pKi ± SEM (converted)
T1 sequence (P30989 whole entry): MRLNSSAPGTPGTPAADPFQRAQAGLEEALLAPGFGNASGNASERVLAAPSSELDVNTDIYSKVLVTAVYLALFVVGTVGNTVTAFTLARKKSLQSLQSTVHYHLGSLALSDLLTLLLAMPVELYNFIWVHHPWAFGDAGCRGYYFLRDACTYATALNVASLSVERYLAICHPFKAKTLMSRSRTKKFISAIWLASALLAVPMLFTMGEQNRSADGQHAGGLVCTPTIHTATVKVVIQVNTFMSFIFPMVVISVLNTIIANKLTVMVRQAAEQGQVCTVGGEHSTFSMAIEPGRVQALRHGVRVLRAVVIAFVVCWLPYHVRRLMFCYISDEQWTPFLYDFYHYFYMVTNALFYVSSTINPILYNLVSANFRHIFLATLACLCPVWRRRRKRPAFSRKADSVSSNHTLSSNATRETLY
Experimental: NTS1R binding affinities were determined in a reported competition binding assay[13] using intact hNTS1R-expressing HT-29 colon carcinoma cells and [^3H]UR-MK300 (structure see Figure 1A) as radioligand (competition binding curves shown in Figure S4, Supporting Information).
NTS1R radioligand competition binding experiments with [^3H]UR-MK300 (molar activity: 2.41 TBq/mmol) and the peptides 6–9, 10a, 10b, 13–16, and 18 were performed with intact hNTS1R-expressing human HT-29 colon carcinoma cells at 23 ± 1 °C using a previously reported protocol.[13] […] Cells were seeded one day before the assay, yielding a confluency of at least 90% on the day of the experiment. Total binding data (including total binding in the absence of competitor) were plotted as dpm values against log(concentration competitor) and analyzed by a four-parameter logistic equation (log(inhibitor) vs response–variable slope, GraphPad Prism 5, GraphPad Software, San Diego, CA) to obtain pIC50 values. Individual pIC50 values were converted to pKi values according to the Cheng–Prusoff equation[60] (logarithmic form). To plot average data from individual binding experiments, data were normalized (100% = “top” of the four-parameter logistic fit, 0% = unspecifically bound radioligand).

NTS1R [2] = target: T1, NTS1R; assay: Fura-2 Ca^2+ assay at CHO-hNTS1R cells; type: cell-based; conditions: agonist mode, read-out: NTS1R pEC50 ± SEM (converted)
NTS1R [3] = target: T1, NTS1R; assay: High-content imaging (HCI) competition binding, adherent CHO-hNTS1R cells; conditions: labeled probe 13 ([…]), 90 min, 23 °C
Experimental: The final volume per well was 200 μL. […] All experiments were performed in triplicate.

NTS1R [4] = target: T1, NTS1R; assay: Flow cytometric (FC) competition binding, suspended CHO-hNTS1R cells; conditions: labeled probe 13 (2.6 nM), 90 min, 23 °C
Experimental: Flow cytometry-based NTS1R binding studies were performed with intact CHO-hNTS1R (all kind of experiments) and HT-29 cells (only saturation binding) using a BD FACSCanto II (Becton Dickinson, Heidelberg, Germany), equipped with an argon laser (488 nm) and a red diode laser (640 nm), and a BD High Throughput Sampler (HTS unit) for microtiter plates. Saturation and competition binding experiments were performed in triplicate in 96-well polypropylene plates (Brand 701330, Wertheim, Germany) using the HTS unit for sample injection. Association and dissociation experiments were performed in duplicate in 5 mL polypropylene tubes (VWR, Radnor) using the standard injection port of the flow cytometer. The following gain settings for forward and sideward scatter were applied: FSC, 0 V; SSC, 252 V. Fluorescence was recorded using the PE-channel (excitation: 488 nm, emission: 585 ± 21) nm with a PMT gain of 330–400 V. For measurements using the HTS unit, 45 μL of the sample were injected with a speed of 1.5 μL/s. For measurements, requiring the use of the standard injection port, the medium flow rate ([…]) was used. Measurements were stopped after 30 s (HTS unit) or after counting of 500–3000 gated events (standard injection port). […]
A 96-well polypropylene plate was prefilled with 200 μL of cell suspension. […] Data were analyzed as described for HCI competition binding experiments.

NTS1R [5] = target: T1, NTS1R; assay: Radiochemical competition binding, adherent CHO-hNTS1R cells; conditions: labeled probe [^3H]13 (1.3 nM), 90 min, 23 °C
NTS1R [6] = target: T1, NTS1R; assay: Radiochemical competition binding, suspended CHO-hNTS1R cells; conditions: labeled probe [^3H]13 (1.8 nM), 90 min, 23 °C
NTS1R [7] = target: T1, NTS1R; assay: Radiochemical competition binding with [^3H]13 at membranes of CHO-hNTS1R cells; conditions: labeled probe [^3H]13 ([…]), 50 μM GppNHp, 23 °C
NTS1R [8] = conditions: reported binding data, cited from earlier work
NTS1R [9] = target: T1, NTS1R; assay: Fluorescence anisotropy (FA) competition binding at hNTS1R-displaying BBVs; parameters: NlucC (C-terminal fragment of nanoluciferase, 11 amino acids) (C); made in house; host or cells: Sf9 insect cells, baculovirus (pIMACE-CMVintP10-hNTS1R-Nluc, DH10MultiBac); budded baculovirus particles; conditions: 27 °C

With `CCC(=O)NCCCC(=O)N[C@@H](Cc1cn(CCCNC(=O)c2ccc(-c3c4ccc(=[N+](C)C)cc-4oc4cc(N(C)C)ccc34)c(C(=O)[O-])c2)nn1)C(=O)N[C@H](C(=O)N1CCC[C@H]1C(=O)N[C@@H](CCCNC(=N)N)C(=O)N[C@@H](CCCNC(=N)N)C(=O)N1CCC[C@H]1C(=O)N[C@@H](Cc1ccc(O)cc1)C(=O)N[C@H](C(=O)N[C@@H](CC(C)C)C(=O)O)[C@@H](C)CC)C1CCNCC1` [Compound 16] the Ki (NTS1R [1]) was 724 pM.

`C#CCCC(=O)N[C@H](C(=O)N1CCC[C@H]1C(=O)N[C@@H](CCCNC(N)=NC(=O)NCCCCN)C(=O)N[C@@H](CCCNC(=N)N)C(=O)N1CCC[C@H]1C(=O)N[C@@H](Cc1ccc(O)cc1)C(=O)N[C@H](C(=O)N[C@@H](CC(C)C)C(=O)O)[C@@H](C)CC)C1CCNCC1` [Compound 6, N^α-(Pent-4-ynoyl)-2-(piperidin-4-yl)-Gly-Pro-N^ω-[(4-aminobutyl)aminocarbonyl]Arg-Arg-Pro-Tyr-Ile-Leu Tetrakis(hydrotrifluoroacetate)] (Pent4ynoyl-[Gly(piperidin-4-yl)]P[X4]RPYIL-OH) gave a Ki (NTS1R [1]) of 603 pM.

Work on `C#CCCC(=O)N[C@H](C(=O)N1CCC[C@H]1C(=O)N[C@@H](CCCNC(=N)NC(=O)NCCCCN)C(=O)N[C@@H](CCCNC(=N)N)C(=O)N1CCC[C@H]1C(=O)N[C@H](C(=O)N[C@H](C(=O)N[C@@H](CC(C)C)C(=O)O)[C@@H](C)CC)C(C)(C)c1ccc(O)cc1)C1CCNCC1` [Compound 10a, N^α-(Pent-4-ynoyl)-2-(piperidin-4-yl)-Gly-Pro-N^ω-[(4-aminobutyl)aminocarbonyl]Arg-Arg-Pro-β,β-dimethyl-L-Tyr-Ile-Leu Tetrakis(hydrotrifluoroacetate)] (Pent4ynoyl-[Gly(piperidin-4-yl)]PR([CO-NH(CH2)4NH2])RP[Tyr(β,β-Me2)]IL-OH) yielded an EC50 (NTS1R [2]) of 316 pM.

In the case of `CCC(=O)NCCCC[C@@H](NC(=O)CCc1cn(CCCNC(=O)c2ccc(-c3c4ccc(=[N+](C)C)cc-4oc4cc(N(C)C)ccc34)c(C(=O)[O-])c2)nn1)C(=O)N1CCC[C@H]1C(=O)N[C@@H](CCCNC(=N)N)C(=O)N[C@@H](CCCNC(=N)N)C(=O)N1CCC[C@H]1C(=O)N[C@@H](Cc1ccc(O)cc1)C(=O)N[C@H](C(=O)N[C@@H](CC(C)C)C(=O)O)[C@@H](C)CC` [Compound 15] (X1-[X2][dK](Propionyl)PRRPYIL-OH), the Ki (NTS1R [1]) is reported as 2950 pM.

Molecule `C#CCCC(=O)N[C@H](C(=O)N1CCC[C@H]1C(=O)N[C@@H](CCCNC(N)=NC(=O)NCCCCN)C(=O)N[C@@H](CCCNC(=N)N)C(=O)N1CCC[C@H]1C(=O)N[C@@H](C(=O)N[C@H](C(=O)N[C@@H](CC(C)C)C(=O)O)[C@@H](C)CC)C(C)(C)c1ccc(O)cc1)C1CCNCC1` [Compound 10b, N^α-(Pent-4-ynoyl)-2-(piperidin-4-yl)-Gly-Pro-N^ω-[(4-aminobutyl)aminocarbonyl]Arg-Arg-Pro-β,β-dimethyl-D-Tyr-Ile-Leu Tetrakis(hydrotrifluoroacetate)] (Pent4ynoyl-[Gly(piperidin-4-yl)]P[X4]RP[dTyr(β,β-Me2)]IL-OH) has a Ki (NTS1R [1]) of 135000 pM.

Work on `C#CC[C@H](NC(=O)CCCN)C(=O)N[C@H](C(=O)N1CCC[C@H]1C(=O)N[C@@H](CCCNC(=N)N)C(=O)N[C@@H](CCCNC(=N)N)C(=O)N1CCC[C@H]1C(=O)N[C@@H](Cc1ccc(O)cc1)C(=O)N[C@H](C(=O)N[C@@H](CC(C)C)C(=O)O)[C@@H](C)CC)C1CCNCC1` [Compound 9] (H-[GABA][Pra][Gly(piperidin-4-yl)]PRRPYIL-OH) yielded a Ki (NTS1R [1]) of 302 pM.

For SR142948, the “HCI: pKi ± SEM” value (NTS1R [3]) was 9.42 ± 0.21, the “FC: pKi ± SEM” value (NTS1R [4]) was 9.24 ± 0.15 and the “RC adherent cells: pKi ± SEM” value (NTS1R [5]) was 8.31 ± 0.18. The “RC cell suspension: pKi ± SEM” value (NTS1R [6]) was 8.19 ± 0.16, the “pKi ± SEM” value (NTS1R [7]) was 9.56 ± 0.06 and the Ki (NTS1R [8]; ref 13) was 1100 pM. For the same molecule, the Ki (NTS1R [8]; ref 52) was 1000 pM, the “FA: pKi ± SEM” value (NTS1R [9]; labeled probe 13 (0.3 nM), NTS1R-BBVs, 90 min) was 8.97 and the “FA: pKi” value (NTS1R [9]; labeled probe 18, NTS1R-BBVs) was 9.19.
